PMC3050433, “The effects of maribavir on the autophosphorylation of ganciclovir resistant mutants of the cytomegalovirus UL97 protein” (Herpesviridae, 2010)
Where a chain is given by its changes, count along the chain named.

How the values were obtained:
[1] = molecular target: T1, UL97 V665I (Human cytomegalovirus, UniProt Q68101, V665I); test: UL97 autophosphorylation protein kinase assay, V665I; type: biochemical; details: V665I mutant
T1 construct: PCR reaction to generate the full length UL97; honey bee melittin secretion signal (N); made in house; host or cells: Sf21 insect cells, recombinant baculovirus (pMelBac C)
T1 sequence (Q68101 1-707 V665I): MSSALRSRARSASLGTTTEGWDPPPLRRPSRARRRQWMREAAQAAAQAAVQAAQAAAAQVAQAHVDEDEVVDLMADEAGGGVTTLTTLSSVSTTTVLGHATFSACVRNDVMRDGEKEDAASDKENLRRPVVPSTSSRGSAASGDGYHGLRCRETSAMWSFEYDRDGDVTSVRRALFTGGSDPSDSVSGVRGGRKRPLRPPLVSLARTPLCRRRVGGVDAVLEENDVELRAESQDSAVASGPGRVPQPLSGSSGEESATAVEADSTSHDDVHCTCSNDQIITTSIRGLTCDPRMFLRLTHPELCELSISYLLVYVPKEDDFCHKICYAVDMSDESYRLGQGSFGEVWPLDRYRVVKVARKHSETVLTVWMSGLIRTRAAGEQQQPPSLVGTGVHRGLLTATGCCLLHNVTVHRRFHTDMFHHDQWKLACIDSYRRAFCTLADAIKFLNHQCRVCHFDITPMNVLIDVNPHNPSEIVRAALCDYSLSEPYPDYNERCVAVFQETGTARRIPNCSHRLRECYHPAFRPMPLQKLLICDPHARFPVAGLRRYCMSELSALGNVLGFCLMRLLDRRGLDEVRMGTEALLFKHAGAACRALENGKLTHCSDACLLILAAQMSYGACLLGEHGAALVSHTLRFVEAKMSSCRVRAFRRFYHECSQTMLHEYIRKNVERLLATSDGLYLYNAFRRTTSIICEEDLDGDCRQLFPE
Description: (§1) Analysis of the autophosphorylation of wild type and mutant UL97 protein species was performed by a standard protein kinase assay as previously described (46). Briefly, purified protein was added to 2× protein kinase buffer (100 mM Tris HCl, pH9.0, 20 mM MgCl2, 10 μM ATP, 4 mM DTT, 2 M NaCl) and 370 KBq [γ^32P] ATP (Amersham), made up to 20 μl with SDW and incubated at 37°C. The reactions were terminated by the addition of 2× SDS sample buffer followed by boiling for 3 minutes. The amount of radiolabelled phosphate incorporated by autophosphorylation was analysed by SDS-PAGE and measured using the Biorad Mulitanalyst. The protein kinase assays were initially performed for 2 to 60 minutes to determine the maximum rate of phosphate incorporation, all assays were then performed at the maximum rate which equated to 5 minutes.
(§2) Enzyme kinetic analysis was performed on the purified wild type and mutant UL97 protein species as above using increasing concentrations of ATP (2 μM to 20 μM). The amount of incorporated radiolabelled phosphate was plotted against the concentration of ATP in a Lineweaver Burke plot to determine the Km for ATP for each UL97 species. […]

[2] = molecular target: T2, UL97 A594T (Human cytomegalovirus, UniProt Q68101, A594T); test: UL97 autophosphorylation protein kinase assay, A594T; type: biochemical
T2 construct: PCR reaction to generate the full length UL97; honey bee melittin secretion signal (N); made in house; host or cells: Sf21 insect cells, recombinant baculovirus (pMelBac C)
T2 sequence (Q68101 1-707 A594T): T1 sequence (Q68101 1-707 V665I) with A594T, I665V
Description: as §1, §2

[3] = molecular target: T3, UL97 M460I (Human cytomegalovirus, UniProt Q68101, M460I); test: UL97 autophosphorylation protein kinase assay, M460I; type: biochemical
T3 construct: PCR reaction to generate the full length UL97; honey bee melittin secretion signal (N); made in house; host or cells: Sf21 insect cells, recombinant baculovirus (pMelBac C)
T3 sequence (Q68101 1-707 M460I): T1 sequence (Q68101 1-707 V665I) with M460I, I665V
Description: as §1, §2

[4] = test system: HCMV strains resistant to ganciclovir, foscarnet and cidofovir; set-up: method as in PMID 16962820; details: cited from earlier work

SMILES	IC50 [1] [nM]	IC50 ([2]; A594T mutant) [nM]	IC50 ([3]; M460I mutant) [nM]	activity against resistant strains [4]	Km ([2]; A594T, read-out: Km for ATP) [µM]	Km ([3]; M460I, read-out: Km for ATP) [µM]
CC(C)Nc1nc2cc(Cl)c(Cl)cc2n1[C@H]1O[C@@H](CO)[C@H](O)[C@@H]1O [maribavir, 5,6-dichloro-2-(isopropylamino)-1-beta-L-ribofuranosyl-1H-benzimidazole]	30	31	4.8	active		
Nc1ncnc2c1ncn2[C@@H]1O[C@H](COP(=O)(O)OP(=O)(O)OP(=O)(O)O)[C@@H](O)[C@H]1O [ATP]					40 ± 4.2	28 ± 2
